Experimental data taken from patent US20240400555A1 (Initial Therapeutics, Inc., priority 2023, published 2024).

What follows are molecules tested on MV-4-11 cells (assay: Cell Viability Assay in MV-4-11 Cells). Conditions: Homo sapiens, MV4-11, 72 h.
Format: cell-based
Procedure: MV-4-11 cells (ATCC) were seeded into sterile 96-well flat clear bottom white polystyrene TC-treated microplates (Corning) at 7,000 cells/well in 150 μL complete growth medium (Iscove's Modified Dulbecco's Medium (IMDM) (Gibco), 10% Heat Inactivated Fetal Bovine Serum (HyClone), 1% Penicillin-Streptomycin-L-Glutamine (HyClone), 1% GlutaMAX (Gibco)). […] After 72 h incubation, plates were removed from incubators and allowed to equilibrate to room temperature (˜10 min) before adding 50 μL per well Cell-Titer Glo reagent (Promega) using a WellJet (Integra Biosciences) dispenser. Plates were then incubated at room temperature for 2-20 min prior to measurement of luminescence on an Envision (Perkin Elmer) plate reader. Data were normalized to DMSO (100% viability) and analyzed using a non-linear four-parameter curve fit.
`C=C(C)c1csc2ccnc(N(C(=O)c3ccc(-c4cn(C)nn4)cc3F)[C@@H]3CCCNC3)c12` [Example 842, (R)-2-fluoro-4-(1-methyl-1H-1,2,3-triazol-4-yl)-N-(piperidin-3-yl)-N-(3-(prop-1-en-2-yl)thieno[3,2-c]pyridin-4-yl)benzamide] was tested, and the IC50 was 270 nM. Work on `Cn1nnc(-c2ccc(C(=O)N(c3nccc4cc(-c5cn[nH]c5)ccc34)[C@@H]3CCCNC3)cc2)n1` [Example 395, (R)—N-(6-(1H-pyrazol-4-yl)isoquinolin-1-yl)-4-(2-methyl-2H-tetrazol-5-yl)-N-(piperidin-3-yl)benzamide] yielded an IC50 of 230 nM.

Same assay, conditions: Homo sapiens, MV4-11, 72 h, MV-4-11 cells, 72 h, Cell-Titer Glo; read-out: IC50
Molecule `Cc1cccc2ccnc(N(C(=O)c3ccc(Nc4nccc(CN5CCCC5)n4)cc3F)[C@@H]3CCCNC3)c12` [Example 961, (R)-2-fluoro-N-(8-methylisoquinolin-1-yl)-N-(piperidin-3-yl)-4-((4-(pyrrolidin-1-ylmethyl)pyrimidin-2-yl)amino)benzamide] has an IC50 of 38 nM. Molecule `Cn1cc(-c2ccc(C(=O)N(c3nccc4sc(-c5ccc(C(N)C(F)(F)F)cc5)cc34)[C@@H]3CCCNC3)c(F)c2)nn1` (stereo partly drawn) [Example 613, N-(2-(4-(1-amino-2,2,2-trifluoroethyl)phenyl)thieno[3,2-c]pyridin-4-yl)-2-fluoro-4-(1-methyl-1H-1,2,3-triazol-4-yl)-N—((R)-piperidin-3-yl)benzamide] has an IC50 of 460 nM. For `N#Cc1ccc(-c2cc3c(N(C(=O)c4ccc(-n5nnc6cccnc65)cc4F)[C@@H]4CCCNC4)nccc3s2)cc1` [Example 387, N-[2-(4-cyanophenyl)thieno[3,2-c]pyridin-4-yl]-2-fluoro-N-[(3R)-3-piperidyl]-4-(triazolo[4,5-b]pyridin-3-yl)benzamide], the IC50 was 300 nM. `COc1ccc2c(N(C(=O)c3ccc(-c4nnc(C)s4)cc3F)[C@@H]3CCCNC3)nccc2c1` [Example 762, (R)-2-fluoro-N-(6-methoxyisoquinolin-1-yl)-4-(5-methyl-1,3,4-thiadiazol-2-yl)-N-(piperidin-3-yl)benzamide] showed an IC50 of 620 nM. Work on `C=CC(=O)Nc1cccc(-c2cc3c(N(C(=O)c4ccc(-c5cn(C)nn5)cc4F)[C@@H]4CCCNC4)nccc3s2)c1` [Example 532, 2-fluoro-4-(1-methyltriazol-4-yl)-N-[(3R)-3-piperidyl]-N-[2-[3-(prop-2-enoylamino)phenyl]thieno[3,2-c]pyridin-4-yl]benzamide] yielded an IC50 of 1800 nM. `Cn1cc(-c2ccc(C(=O)N(c3nccc4sc(/C=C\CO)cc34)[C@@H]3CCCNC3)c(F)c2)nn1` [Example 504, (R,Z)-2-fluoro-N-(2-(3-hydroxyprop-1-en-1-yl)thieno[3,2-c]pyridin-4-yl)-4-(1-methyl-1H-1,2,3-triazol-4-yl)-N-(piperidin-3-yl)benzamide] was tested, and the IC50 was 810 nM. `[2H]C([2H])([2H])n1cc(-c2ccc(C(=O)N(c3nccc4cc(Cl)cc(C)c34)[C@@H]3CCCNC3)cc2)nn1` [Example 892, N-(6-chloro-8-methyl-1-isoquinolyl)-N-[(3R)-3-piperidyl]-4-[1-(trideuteriomethyl)triazol-4-yl] benzamide] was tested, and the IC50 was 51 nM. For `Cn1cc(-c2ccc(C(=O)N(c3nccc4sc(-c5ccc6cc[nH]c6c5)cc34)[C@@H]3CCCNC3)c(F)c2)nn1` [Example 543, 2-fluoro-N-[2-(1H-indol-6-yl)thieno [3,2-c]pyridin-4-yl]-4-(1-methyltriazol-4-yl)-N-[(3R)-3-piperidyl] benzamide], the IC50 was 310 nM. In the case of `Cc1cccc2ccnc(N(C(=O)c3ccc(Nc4nccc(-c5ccc(O)cc5)n4)cc3F)[C@@H]3CCCNC3)c12` [Example 721, (R)-2-fluoro-4-((4-(4-hydroxyphenyl)pyrimidin-2-yl)amino)-N-(8-methylisoquinolin-1-yl)-N-(piperidin-3-yl)benzamide], the IC50 is reported as 140 nM. `Cc1cccc2ccnc(N(C(=O)c3ccc(-c4nnc(C5CC5)s4)cc3)[C@@H]3CCCNC3)c12` [Example 790, (R)-4-(5-cyclopropyl-1,3,4-thiadiazol-2-yl)-N-(8-methylisoquinolin-1-yl)-N-(piperidin-3-yl) benzamide] gave an IC50 of 240 nM. `COCCc1nnc(-c2ccc(C(=O)N(c3nccc4cccc(C)c34)[C@@H]3CCCNC3)cn2)s1` [Example 910, (R)-6-(5-(2-methoxyethyl)-1,3,4-thiadiazol-2-yl)-N-(8-methylisoquinolin-1-yl)-N-(piperidin-3-yl)nicotinamide] gave an IC50 of 97 nM. With `Cc1cc(-c2cn(C)nn2)ccc1C(=O)N(c1nccc2cccc(C)c12)C1CCCNC1` (centres unmarked) [Example 705, 2-methyl-4-(1-methyl-1H-1,2,3-triazol-4-yl)-N-(8-methylisoquinolin-1-yl)-N-(piperidin-3-yl)benzamide] the IC50 was 510 nM. With `Cc1cccc2ccnc(N(C(=O)c3ccc(Nc4nccc(N5CCC(C)(CO)CC5)n4)cc3F)[C@@H]3CCCNC3)c12` [Example 963, 2-fluoro-4-({4-[4-(hydroxymethyl)-4-methylpiperidin-1-yl]pyrimidin-2-yl}amino)-N-(8-methylisoquinolin-1-yl)-N-[(3R)-piperidin-3-yl]benzamide] the IC50 was 12 nM. `Cc1nc(Nc2ccc(C(=O)N(c3nccc4cccc(C)c34)[C@@H]3CCCNC3)c(F)c2)ncc1F` [Example 754, (R)-2-fluoro-4-((5-fluoro-4-methylpyrimidin-2-yl)amino)-N-(8-methylisoquinolin-1-yl)-N-(piperidin-3-yl)benzamide] was tested, and the IC50 was 340 nM. With `O=C(c1ccc(-n2nnc3cccnc32)cc1F)N(c1nccc2sc(-c3cnccn3)cc12)[C@@H]1CCCNC1` [Example 451, 2-fluoro-N-[(3R)-3-piperidyl]-N-(2-pyrazin-2-ylthieno[3,2-c]pyridin-4-yl)-4-(triazolo[4,5-b]pyridin-3-yl)benzamide] the IC50 was 250 nM. Work on `CN(C)c1nccc(-c2cc3c(N(C(=O)c4ccc(-n5nnc6cccnc65)cc4F)[C@@H]4CCCNC4)nccc3s2)n1` [Example 458, N-[2-[2-(dimethylamino)pyrimidin-4-yl]thieno[3,2-c]pyridin-4-yl]-2-fluoro-N-[(3R)-3-piperidyl]-4-(triazolo[4,5-b]pyridin-3-yl)benzamide] yielded an IC50 of 390 nM. In the case of `COc1ccc2c(N(C(=O)c3ccc(-c4cn(C)nn4)cc3F)[C@@H]3CCCNC3)nccc2c1` [Example 471, (R)-2-fluoro-N-(6-methoxyisoquinolin-1-yl)-4-(1-methyl-1H-1,2,3-triazol-4-yl)-N-(piperidin-3-yl)benzamide], the IC50 is reported as 240 nM. With `Cc1nnc(-c2ccc(C(=O)N(c3nccc4scc(C)c34)[C@@H]3CCCNC3)cc2)s1` [Example 798, (R)-4-(5-methyl-1,3,4-thiadiazol-2-yl)-N-(3-methylthieno[3,2-c]pyridin-4-yl)-N-(piperidin-3-yl)benzamide] the IC50 was 82 nM. Molecule `COc1cc(-c2cc3c(N(C(=O)c4ccc(-n5nnc6cccnc65)cc4F)[C@@H]4CCCNC4)nccc3s2)ccn1` [Example 460, 2-fluoro-N-[2-(2-methoxy-4-pyridyl)thieno[3,2-c]pyridin-4-yl]-N-[(3R)-3-piperidyl]-4-(triazolo[4,5-b]pyridin-3-yl)benzamide] has an IC50 of 220 nM. `Cc1sc2ccnc(N(C(=O)c3ccc(-c4cn(C)nn4)cc3F)[C@@H]3CCCNC3)c2c1C` [Example 831, (R)—N-(2,3-dimethylthieno[3,2-c]pyridin-4-yl)-2-fluoro-4-(1-methyl-1H-1,2,3-triazol-4-yl)-N-(piperidin-3-yl)benzamide] gave an IC50 of 440 nM. `COc1ccc(C)c2c(N(C(=O)c3ccc(-c4nnc(C)s4)cc3)[C@@H]3CCCNC3)nccc12` [Example 871, N-(5-methoxy-8-methyl-1-isoquinolyl)-4-(5-methyl-1,3,4-thiadiazol-2-yl)-N-[(3R)-3-piperidyl]benzamide] showed an IC50 of 720 nM. `Cn1cc(-c2ccc(C(=O)N(c3nccc4sc(C#CCO)cc34)[C@@H]3CCCNC3)c(F)c2)nn1` [Example 479, (R)-2-fluoro-N-(2-(3-hydroxyprop-1-yn-1-yl)thieno[3,2-c]pyridin-4-yl)-4-(1-methyl-1H-1,2,3-triazol-4-yl)-N-(piperidin-3-yl)benzamide] showed an IC50 of 3200 nM. Work on `Cc1csc2c(N(C(=O)c3ccc(-c4cn(C)nn4)cc3F)[C@@H]3CCCNC3)nccc12` [Example 677, (R)-2-fluoro-4-(1-methyl-1H-1,2,3-triazol-4-yl)-N-(3-methylthieno[2,3-c]pyridin-7-yl)-N-(piperidin-3-yl)benzamide] yielded an IC50 of 1400 nM. In the case of `O=C(c1ccc(-n2nnc3cccnc32)cc1F)N(c1nccc2sc(-c3ccnc(F)c3)cc12)[C@@H]1CCCNC1` [Example 566, 2-fluoro-N-[2-(2-fluoro-4-pyridyl)thieno [3,2-c]pyridin-4-yl]-N-[(3R)-3-piperidyl]-4-(triazolo [4,5-b]pyridin-3-yl) benzamide], the IC50 is reported as 240 nM. In the case of `COCc1cn(-c2ccc(C(=O)N(c3nccc4scc(C)c34)[C@@H]3CCCNC3)cc2)nn1` [Example 630, (R)-4-(4-(methoxymethyl)-1H-1,2,3-triazol-1-yl)-N-(3-methylthieno[3,2-c]pyridin-4-yl)-N-(piperidin-3-yl)benzamide], the IC50 is reported as 160 nM. Work on `NC(=O)c1ccc(-c2cc3c(N(C(=O)c4ccc(-n5cnc6ccccc65)cc4F)[C@@H]4CCCNC4)nccc3s2)cc1` [Example 826, 4-(benzimidazol-1-yl)-N-[2-(4-carbamoylphenyl)thieno[3,2-c]pyridin-4-yl]-2-fluoro-N-[(3R)-3-piperidyl]benzamide] yielded an IC50 of 4400 nM. Work on `Cn1cc(-c2ccc(C(=O)N(c3nccc4cc(F)ccc34)[C@@H]3CCCNC3)c(F)c2)nn1` [Example 469, (R)-2-fluoro-N-(6-fluoroisoquinolin-1-yl)-4-(1-methyl-1H-1,2,3-triazol-4-yl)-N-(piperidin-3-yl)benzamide] yielded an IC50 of 180 nM.
